These results are taken from patent publication US6040434A, “Aldehyde oxidase inhibitors for treatment of aids” (priority 1997, dated 2000).

The test system of data set [1] is S9 fraction of human liver. The data set is described as follows: AMT formation from AZT by human liver S9 fraction / human liver samples. The format is in vitro ADME. The text has this:
(§1) Hamster livers were processed by the same method.
(§2) This reduced the experimental variability and simplified the procedure. […] The method was as follows.
(§3) AMT formation by a human liver S9 fraction was compared with that by a hamster liver S9 fraction, as the hamster has the highest documented level of liver aldehyde oxidase activity (Kitamura, 1984; by Sugihara, 1996).

In data set [2] the target is T1, S9 fraction of human liver (Homo sapiens, UniProt Q06278).
T1 construct: Human liver samples stored at -70° C. were partially thawed, homogenized; from tissue; host or cells: human liver, S9 fraction (9000 g supernatant)
T1 sequence (Q06278 1-1338): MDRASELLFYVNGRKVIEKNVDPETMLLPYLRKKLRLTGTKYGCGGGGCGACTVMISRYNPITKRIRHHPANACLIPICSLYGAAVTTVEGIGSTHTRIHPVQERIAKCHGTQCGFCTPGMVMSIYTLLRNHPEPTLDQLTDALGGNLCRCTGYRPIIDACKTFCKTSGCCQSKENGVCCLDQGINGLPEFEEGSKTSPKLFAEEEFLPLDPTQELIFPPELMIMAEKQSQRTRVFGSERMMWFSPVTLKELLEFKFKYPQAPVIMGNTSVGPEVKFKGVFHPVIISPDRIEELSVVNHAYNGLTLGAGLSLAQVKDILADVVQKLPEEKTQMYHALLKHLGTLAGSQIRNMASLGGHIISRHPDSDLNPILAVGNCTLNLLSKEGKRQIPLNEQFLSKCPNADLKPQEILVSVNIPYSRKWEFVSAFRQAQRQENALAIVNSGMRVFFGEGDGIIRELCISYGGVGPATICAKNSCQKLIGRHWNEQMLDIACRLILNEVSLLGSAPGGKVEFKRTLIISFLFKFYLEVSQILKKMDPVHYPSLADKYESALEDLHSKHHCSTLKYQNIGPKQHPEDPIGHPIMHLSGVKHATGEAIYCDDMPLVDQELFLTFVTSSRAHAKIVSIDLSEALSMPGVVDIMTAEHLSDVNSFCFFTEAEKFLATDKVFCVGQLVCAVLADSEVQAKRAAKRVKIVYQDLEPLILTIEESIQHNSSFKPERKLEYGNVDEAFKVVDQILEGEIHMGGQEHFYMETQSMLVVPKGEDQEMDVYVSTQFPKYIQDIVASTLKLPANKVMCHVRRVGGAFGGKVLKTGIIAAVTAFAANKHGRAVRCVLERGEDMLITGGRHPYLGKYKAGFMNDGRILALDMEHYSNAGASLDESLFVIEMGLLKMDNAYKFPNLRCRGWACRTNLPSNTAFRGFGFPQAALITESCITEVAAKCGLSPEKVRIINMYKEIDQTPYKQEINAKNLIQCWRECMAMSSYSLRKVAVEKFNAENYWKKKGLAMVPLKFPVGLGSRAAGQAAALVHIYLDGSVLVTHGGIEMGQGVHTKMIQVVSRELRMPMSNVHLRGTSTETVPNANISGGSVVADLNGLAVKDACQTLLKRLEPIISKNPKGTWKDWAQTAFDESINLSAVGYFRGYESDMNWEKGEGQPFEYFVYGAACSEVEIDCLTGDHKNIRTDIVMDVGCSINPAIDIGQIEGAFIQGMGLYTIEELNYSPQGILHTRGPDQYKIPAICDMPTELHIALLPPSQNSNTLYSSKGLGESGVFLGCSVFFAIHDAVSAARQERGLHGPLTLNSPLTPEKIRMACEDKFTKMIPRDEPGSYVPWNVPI
The data set is described as above. The class given is in vitro ADME. The following applies: human liver samples; conversion of AZT to AMT.
Description: as §1, §2, §3

Data set [3] relates to microsomal fraction of human liver. The format is in vitro ADME.
Description: as §1, §2

For data set [4], the system named is cytosolic fraction of human liver (aldehyde oxidase). The format is in vitro ADME.
Description: as §1, §2

Data set [5] concerns S9 fraction of hamster liver. The class given is in vitro ADME.
Description: as §1, §2, §3

A further data set has as its system bone marrow cells. The following applies: in words; cited from earlier work.
The conditions of data set [6]: in words; cited from earlier work.
The next data set concerns retroviral replication. As to conditions: cited from earlier work.
Another data set relates to bone marrow. As to conditions: cited from earlier work.
The conditions of data set [7]: in words; Veal et al., 1995; cited from earlier work.
Data set [8] has as its system microsomal cytochrome P450 isozymes and microsomal NADPH-cytochrome P450 reductase. As to conditions: in words; Eagling (1994); cited from earlier work.

Structures are written as SMILES.

Take `Cc1cn([C@H]2C[C@H](N)[C@@H](CO)O2)c(=O)[nH]c1=O` [AMT, 3'-amino-3'-deoxythymidine]: in data set [1], the “Ratio (2-OHP/NADPH) of AMT formation, H.L. (first column)” value is reported as 11; the “Ratio (2-OHP/NADPH) of AMT formation, H.L. (second column)” value is 9.5; the “share of AMT formation due to microsomal enzyme activity” value is “about 10%”. In data set [1] (human, s9, 10 µM, pH 7.5), the “AMT formation (% AMT formed/0.05 g liver), H.L. (first column)” value is listed as 1.8 % AMT formed/0.05 g liver and the “AMT formation (% AMT formed/0.05 g liver), H.L. (second column)” value came out at 1.5 % AMT formed/0.05 g liver. Besides, the “share of AMT formation due to cytosolic aldehyde oxidase (2-OHP-dependent)” value in [2] is listed as “about 90%”. Besides, in data set [3], the “2-OHP-dependent AMT formation” value is recorded as “no 2-OHP-dependent AMT formation” and the “NADPH-dependent AMT formation” value is on record as “NADPH-dependent AMT formation occurred in the microsomal fraction”. Moreover, in data set [4], the “2-OHP-dependent AMT formation” value is given as “a higher level of AMT formation, dependent on 2-OHP” and the “NADPH-dependent AMT formation” value is listed as “no NADPH-dependent AMT formation”. Also, in data set [5], the “AMT formation by hamster versus human liver S9” value was “greater activity than the human fraction in the presence of either co-factor” and the “Ratio (2-OHP/NADPH) of AMT formation, HM” value came to 4.4. In the data set with bone marrow cells, the “toxicity to bone marrow cells relative to AZT” value is “more toxic to bone marrow cells than AZT”. The “half-life in the circulation relative to AZT” value in [6] was “longer half-life in the circulation”.

As to `Cc1cn([C@H]2C[C@H](N=[N+]=[N-])[C@@H](CO)O2)c(=O)[nH]c1=O` [AZT, 3'-azido-3'-deoxythymidine], the “share of AMT formation due to microsomal enzyme activity” value in data set [1] was “less than 10%”. In addition, the “share of AMT formation due to cytosolic aldehyde oxidase (2-OHP-dependent)” value in data set [2] is recorded as at least 90%. For the same compound, the “inhibition of retroviral replication” value with retroviral replication is recorded as “potent inhibitor of retroviral replication”. The “patients treated with AZT suffering bone marrow toxicity” value in the data set on bone marrow (depending on dosage and disease stage) is “up to 51%”. For the same compound, in the data set with bone marrow (in words), the “side-effect of bone marrow toxicity” value is “bone marrow toxicity, resulting in granulocytopenia and anemia”. For the same compound, the “pathways of metabolism and elimination” value in data set [7] was “The predominant pathway of metabolism is by glucuronide formation and renal excretion”. For the same compound, the “conversion of AZT to AMT by human liver microsomes” value in [8] was “the conversion was mediated by both microsomal cytochrome P450 isozymes and microsomal NADPH-cytochrome P450 reductase”.
